Source: patent US6362188B1, “Farnesyl protein transferase inhibitors” (Schering Corporation, priority 1998, dated 2002)

Experiments:
Human tumor cells = assay: Soft Agar Assay (anchorage-independent growth); type: cell-based; details: colony outgrowth in soft agar, stated as a range for the group
Procedure, shortened: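 Tumor cells suspended in 0.3% agarose over a 0.6% agarose base, both layers containing the same farnesyl transferase inhibitor concentration. Incubated 10-16 days at 37° C, 5% CO2; colonies stained with MTT (1 mg/mL in PBS) and counted, IC50 determined.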

SMILES: Cc1cn(C[C@H]2CCCN(C(=O)[C@H]3CN([C@@H]4c5ccc(Cl)cc5CCc5cc(F)cnc54)CCN3C(=O)OC3CCCCC3)C2)cn1 [Example 290]
- IC50 (Human tumor cells): 0.05 to 30 nM
- melting point: 121 to 125 °C

SMILES: Cc1cn(CC2CCCN(C(=O)C3CN(C4c5ccccc5CCc5cc(Cl)cnc54)CCN3C(=O)OC(C)(C)C)C2)cn1 (centres unmarked) [Example 292]
- IC50 (Human tumor cells): 0.05 to 30 nM
- melting point: 95 to 105 °C

SMILES: Cc1cn(C[C@H]2CCCN(C(=O)[C@H]3CN([C@@H]4c5ccccc5CCc5cc(Cl)cnc54)CCN3C(=O)OC(C)(C)C)C2)cn1 [Example 294]
- IC50 (Human tumor cells): 0.05 to 30 nM
- melting point: 102 to 118 °C

SMILES: Cc1cn(C[C@@H]2CCCN(C(=O)[C@H]3CN([C@H]4c5ccccc5CCc5cc(Cl)cnc54)CCN3C(=O)OC3CCCCC3)C2)cn1 [Example 319]
- IC50 (Human tumor cells): 0.05 to 30 nM
- melting point: 114 to 118 °C

SMILES: Cc1cn(C[C@@H]2CCCN(C(=O)[C@H]3CN([C@@H]4c5ccccc5CCc5cc(Cl)cnc54)CCN3C(=O)OC3CCCCC3)C2)cn1 [Example 320]
- IC50 (Human tumor cells): 0.05 to 30 nM
- melting point: 115 to 120 °C

SMILES: Cc1cn(C[C@H]2CCCN(C(=O)[C@H]3CN([C@H]4c5ccccc5CCc5cc(Cl)cnc54)CCN3C(=O)OC3CCCCC3)C2)cn1 [Example 321]
- IC50 (Human tumor cells): 0.05 to 30 nM
- melting point: 112 to 121 °C

SMILES: Cc1cn(C[C@H]2CCCN(C(=O)[C@H]3CN([C@@H]4c5ccccc5CCc5cc(Cl)cnc54)CCN3C(=O)OC3CCCCC3)C2)cn1 [Example 322]
- IC50 (Human tumor cells): 0.05 to 30 nM
- melting point: 117 to 125 °C

SMILES: Cc1cn(C[C@@H]2CCCN(C(=O)[C@H]3CN([C@H]4c5ccccc5CCc5cc(Br)cnc54)CCN3C(=O)OC(C)(C)C)C2)cn1 [Example 323]
- IC50 (Human tumor cells): 0.05 to 30 nM
- melting point: 109 to 124 °C

SMILES: Cc1cn(C[C@@H]2CCCN(C(=O)[C@H]3CN([C@@H]4c5ccccc5CCc5cc(Br)cnc54)CCN3C(=O)OC(C)(C)C)C2)cn1 [Example 324]
- IC50 (Human tumor cells): 0.05 to 30 nM
- melting point: 102 to 119 °C

SMILES: Cc1cn(C[C@@H]2CCCN(C(=O)[C@H]3CN([C@H]4c5ccccc5CCc5cc(Br)cnc54)CCN3C(=O)OC3CCCCC3)C2)cn1 [Example 351]
- IC50 (Human tumor cells): 0.05 to 30 nM
- melting point: 120 to 124 °C

SMILES: Cc1cn(C[C@@H]2CCCN(C(=O)[C@H]3CN([C@@H]4c5ccccc5CCc5cc(Br)cnc54)CCN3C(=O)OC3CCCCC3)C2)cn1 [Example 352]
- IC50 (Human tumor cells): 0.05 to 30 nM
- melting point: 122 to 125 °C

SMILES: Cc1cn(C[C@H]2CCCN(C(=O)[C@H]3CN([C@H]4c5ccccc5CCc5cc(Br)cnc54)CCN3C(=O)OC3CCCCC3)C2)cn1 [Example 353]
- IC50 (Human tumor cells): 0.05 to 30 nM
- melting point: 121 to 127 °C

SMILES: Cc1cn(CC2CCCN(C(=O)C3CN(C4c5ccccc5CCc5cc(Br)cnc54)CCN3C(=O)OC3CCCCC3)C2)cn1 (centres unmarked) [Example 354]
- IC50 (Human tumor cells): 0.05 to 30 nM
- melting point: 124 to 128 °C

SMILES: Cc1cn(C[C@@H]2CCCN(C(=O)[C@H]3CN([C@H]4c5ccccc5CCc5cc(F)cnc54)CCN3C(=O)OC3CCCCC3)C2)cn1 [Example 383]
- IC50 (Human tumor cells): 0.05 to 30 nM
- melting point: 121 to 126 °C

SMILES: Cc1cn(C[C@@H]2CCCN(C(=O)[C@H]3CN([C@@H]4c5ccccc5CCc5cc(F)cnc54)CCN3C(=O)OC3CCCCC3)C2)cn1 [Example 384]
- IC50 (Human tumor cells): 0.05 to 30 nM
- melting point: 104 to 111 °C

SMILES: Cc1cn(C[C@@H]2CCCN(C(=O)[C@H]3CN([C@H]4c5ccc(Cl)cc5CCc5ccc[n+]([O-])c54)CCN3C(=O)OC3CCCCC3)C2)cn1 [Example 387]
- IC50 (Human tumor cells): 0.05 to 30 nM
- melting point: 85 to 90 °C

SMILES: Cc1cn(C[C@@H]2CCCN(C(=O)[C@H]3CN([C@@H]4c5ccc(Cl)cc5CCc5ccc[n+]([O-])c54)CCN3C(=O)OC3CCCCC3)C2)cn1 [Example 388]
- IC50 (Human tumor cells): 0.05 to 30 nM
- melting point: 108 to 113 °C

SMILES: Cc1cn(C[C@@H]2CCCN(C(=O)[C@H]3CN([C@H]4c5ccc(Cl)cc5CCc5cccnc54)CCN3C(=O)OCC(C)(C)C)C2)cn1 [Example 411]
- IC50 (Human tumor cells): 0.05 to 30 nM
- melting point: 103 to 115 °C

SMILES: Cc1cn(C[C@@H]2CCCN(C(=O)[C@H]3CN([C@H]4c5ccc(Cl)cc5CCc5cccnc54)CCN3C(=O)Cc3cc[n+]([O-])cc3)C2)cn1 [Example 412]
- IC50 (Human tumor cells): 0.05 to 30 nM
- melting point: 175 °C (dec.)
